Reference: patent US20140323757A1, “Biosurfactant Isolated from Yeast” (Gyeongbuk Institute of Marine Bio-industry, priority 2013, published 2014)

Assay: Surface tension measurement
Assay type: physicochemical
Set-up: unit not given here
Conditions: at 1.5 mg/L
Source text: Surface tension is increased in proportion to molecular interaction, and hydrocarbons or organic polymers show low surface tension due to their weak molecular interaction. Surface tension is represented by N/m. Since surfactants have hydrophobic and hydrophilic groups, when added to water, its surface tension is lowered. […] The compounds represented by […]

SMILES | Surface Tension
CCCCCC(=O)OC1C(O)C(O)C(O)C(OC(C)=O)C1OC(=O)CCCCC (centres unmarked) [Compound A57-4-gly-1] | 22.90
CCCCCC(=O)OC1C(O)C(O)C(O)C(O)C1OC(=O)CCCCC (single isomer, unassigned) [Compound A57-4-gly-5] | 22.44
CCCCCC(=O)OC1C(O)C(O)C(O)C(O)C1OC(=O)CCCCC (single isomer, unassigned) [Compound A57-4-gly-2] | 22.40
CCCCCC(=O)OC1C(O)C(O)C(O)C(OC(=O)CCCCC)C1OC(=O)CCCCC (centres unmarked) [Compound A57-4-gly-4] | 25.28
CCCCCC(=O)OC1C(O)C(O)C(O)C(OC(=O)CCCCC)C1OC(C)=O (centres unmarked) [Compound A57-4-gly-3] | 28.71
